Laboratory results from patent US20060224077A1, “Analysis of a skin reactivity and hypersensitivity” (priority 2002, published 2006).

Test system: maxillary nerve (V2, sensory)
Test: Action potential of the maxillary nerve in response to electrical stimulation at face level, recorded non-invasively in vivo
Parameters: species or system human
Conditions: cream containing 0.75% capsaicin, 2 mg/cm^2 on a 2×4 mm skin zone immediately above the upper lip; 5 minutes after application; versus before application
From the text: The process according to the invention which uses the electrogenesis of the nerves and/or the brain is characterized in that: • two non-invasive electrodes (1,1′) are applied, at least one of the two electrodes being applied to a specific point of the zone of the skin to be analyzed, the measuring point, in order to detect the electrical activity of the nerves of the skin and/or the subcutaneous nerves at that point or even the electrical activity of the brain. These electrodes are associated with a circuit for evaluating the signals detected by the electrodes, this evaluation circuit comprising amplifying elements (2, 2′, 3), processing elements (7) and recording elements for the signals and also a microprocessor (8), • the skin zone to be analyzed is exposed to a stimulation, more particularly an electrical stimulation, and • the changes in the electrical signals detected by the electrodes driven by the stimulation as a function of time are analyzed over a certain period. […]
FIG. 8 compares the variations in the action potential of the maxillary nerve (V2, sensory) in response to an electrical stimulation at face level before and immediately after the topical application of xylocaine (5%). […] A cream containing 0.75% capsaicin was used for this purpose and was applied in a quantity of 2 mg/cm^2 to a 2×4 mm skin zone immediately above the upper lip. […]

## COc1cc(CNC(=O)CCCC/C=C/C(C)C)ccc1O [capsaicin]
  increase of the amplitude of the nerve potential after application: 75%
